Laboratory results: patent US20250041266A1, “S1P MODULATOR IMMEDIATE RELEASE DOSAGE REGIMEN” (Novartis AG, priority 2014, published 2025)

Assays:
[1] = target: T1, cloned human S1P5 (Homo sapiens, UniProt Q9H228); assay: In-vitro affinity, EC50 for cloned human S1P5; assay type: biochemical
T1 construct: expressed in transfected cells

[2] = target: T2, cloned human S1P1 (Homo sapiens, UniProt P21453); assay: In-vitro affinity, EC50 for cloned human S1P1; assay type: biochemical
T2 construct: expressed in transfected cells
T2 sequence (P21453 whole entry): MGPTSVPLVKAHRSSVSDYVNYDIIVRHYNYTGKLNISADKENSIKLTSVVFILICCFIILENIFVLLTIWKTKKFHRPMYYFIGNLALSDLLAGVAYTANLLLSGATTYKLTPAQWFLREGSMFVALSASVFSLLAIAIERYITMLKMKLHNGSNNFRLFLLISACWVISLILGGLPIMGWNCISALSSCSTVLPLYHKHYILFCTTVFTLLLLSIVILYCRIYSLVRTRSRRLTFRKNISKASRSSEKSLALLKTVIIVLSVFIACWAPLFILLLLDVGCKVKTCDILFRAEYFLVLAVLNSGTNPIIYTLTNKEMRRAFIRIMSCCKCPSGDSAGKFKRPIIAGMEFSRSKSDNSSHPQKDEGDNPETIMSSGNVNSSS

[3] = target: S1P5 (Homo sapiens, UniProt Q9H228); assay: EC50 for S1P5; assay type: biochemical; conditions: as quoted in Example 3.1
Sequence of S1P5 (Q9H228 whole entry, species assumed): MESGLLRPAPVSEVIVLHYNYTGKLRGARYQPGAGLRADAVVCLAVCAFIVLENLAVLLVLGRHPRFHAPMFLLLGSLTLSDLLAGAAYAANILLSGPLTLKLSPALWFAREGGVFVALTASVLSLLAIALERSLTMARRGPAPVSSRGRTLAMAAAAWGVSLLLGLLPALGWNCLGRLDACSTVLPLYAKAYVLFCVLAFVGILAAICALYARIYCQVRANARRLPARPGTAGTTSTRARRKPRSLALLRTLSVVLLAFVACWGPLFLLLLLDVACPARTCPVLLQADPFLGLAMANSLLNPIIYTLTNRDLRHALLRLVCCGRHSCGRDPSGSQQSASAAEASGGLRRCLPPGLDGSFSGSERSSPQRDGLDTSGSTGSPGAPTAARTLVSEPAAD

[4] = administration of 10 mg of siponimod; cited from earlier work
[5] = tested on: PLP139-151 induced experimental autoimmune encephalomyelitis (EAE) in SJL/J mice; assay: Relapse and progression in PLP139-151 induced EAE; assay type: in vivo; conditions: 3 mg/kg p.o. daily, started three days after first clinical symptoms; FIG. 2
Protocol: Female SJL/J mice were immunized with 50 μg PLP139-151 in CFA, followed by one injection of 200 ng Pertussis toxin, i.p.. Three days after the first clinical symptoms, the mice were randomized to either vehicle or BAF312 and treated daily with 3 mg/kg BAF312 p.o..

[6] = target: S1P1 (Homo sapiens, UniProt P21453); assay: EC50 for S1P1; assay type: biochemical; conditions: as quoted in Example 3.1
Sequence of S1P1 (P21453 whole entry, species assumed): as the sequence (P21453 whole entry) above

[7] = Clinical study in SPMS: cardiac monitoring at treatment initiation; assay type: in vivo, patients with Secondary Progressive Multiple Sclerosis
Excerpt: This is a randomized, multicenter, double-blind, placebo-controlled parallel-group study in approximately 1530 patients with SPMS. Patients are randomized (2:1) to receive either BAF312 or placebo.
The Double-blind treatment epoch starts at randomization. Patients are randomly assigned to either siponimod or placebo. Randomized patients begin with a six-day dose titration Patients are monitored during the dose titration period. During the dose titration, all patients are expected to complete a study visit on the first day of dosing and on day 7. Patients have a study visit on Day 28 and then continue on a visit schedule every 3 months. The treatment duration for individual patients is variable (likely ranging from approximately 23 to 42 months) based on when the study-stop criteria are met.
All patients start the treatment with a 5-day dose titration pack (0.25 mg, 0.25 mg, 0.5 mg, 0.75 mg, 1.25 mg) continuing to a 2 mg siponimod/placebo dose.
Sitting heart rate and blood pressure should be measured in triplicate before the first dose of BAF312, then hourly for 6 hours thereafter (by the Independent First Dose Administrator). When obtaining the pre-dose heart rate before the first dose, the patient should be allowed to sit and rest for 5 minutes before taking the sitting heart rate. Triplicate repeat sitting heart rate and blood pressure will then be made at 1-2 minute intervals. The sitting heart rate and blood pressure measurements should be taken as a baseline reading for both heart rate and blood pressure (before the first dose of BAF312). For comparison to the post-dose heart rate values, the lowest pre-dose value of heart rate should be used. Patients should receive the first dose of BAF312 before 12:00 PM (noon) in the outpatient setting. • 1. In house (clinical/office/hospital) cardiac monitoring, of at least 6 hours, on Day 1 (treatment initiation): • Heart rate and blood pressure will be monitored in triplicate every hour for 6 hours. • 12-lead ECG will be done before dosing, then at 3 hours post-dose and 6 hours post dose • Patients will only be discharged if they meet the following discharge criteria: • Heart rate must be at least 50 bpm or maximally 10 bpm lower than the baseline value • Heart rate must not be the lowest value measured during the observation period • Patients must have no symptoms related to decreased heart rate • ECG at 6 hours should not show any new significant treatment-emergent ECG abnormalities, other than sinus bradycardia, not observed at the patient's pre-dose ECG. • 2. If the discharge criteria are not met at the 6-hour time point, monitoring beyond 6 hours will be performed until the discharge criteria are met. • 3. Patients experiencing a clinically relevant treatment-related symptomatic event (e.g. chest pain, dizziness, palpitations, syncope, nausea and vomiting, etc) associated with reduction of the heart rate together with ECG changes at any time during the 6 hour monitoring period should be discontinued from treatment. • 4. Patients experiencing a symptomatic event, (e.g. chest pain, dizziness, palpitations, syncope, nausea and vomiting) not associated with reduction of the heart rate and without ECG changes, which occur at any time during the 6-hour monitoring period may be discharged, provided they meet the discharge criteria, but must return on Day 2 for the second dose and will be re-monitored as on Day 1. • 5. Mobile heart rate monitoring with telemetry, or a device with similar (or better) registration capability, will be used for continuous registration of heart rate and cardiac events, minimally 6 h post-dose, for Expanded Cardiac Monitoring patients during their outpatient phase of the BAF312 titration period. If MCT is not possible, Patient will be required to wear a Holter on Screening, Day 1 and Day 4 for 24 hours and for 6 hours on Day 7. The patients who will wear a Holter will need make the study visits to have the Holter machine attached. • 6. On Day 4: • a. […]

[8] = blinded data (siponimod or placebo)
[9] = blinded data (siponimod or placebo), AE data for 775 patients

T1 sequence (Q9H228 whole entry): as the sequence (Q9H228 whole entry, species assumed) above

| EC50 [1] | EC50 [2] | EC50 [3] | EC50 [6] | cases of 2.1 or Mobitz II AV blocks or high degree AV blocks [7, 8] | cases of symptomatic 2nd degree AV blocks [7, 8] | Holter: patients with AV block 2nd degree Mobitz I night-time episode <3 sec ([7]; blinded data (siponimod or placebo), Day 1, expanded monitoring group, 651 patients) | MCT: patients with AV block 2nd degree Mobitz I ([7]; blinded data (siponimod or placebo), on Days 3 and 4, MCT or Holter post-dose, 651 patients) | SMILES | decrease in heart rate [4] | occurrence of relapses (relapse onset) [5] | occurrence of subsequent progression (EAE score and body weight) [5] | 12-lead ECG: cases of 2nd degree AV block ([7]; blinded data (siponimod or placebo 2:1), 5-day titration then 2 mg, post-dose ECG, 691 patients) | symptomatic bradyarrhythmia events [7, 8] | AE AV block 2nd degree [7, 9] | AE bradycardia [7, 9] | AE sinus bradycardia [7, 9] | Cardiac disorders AEs reported [7, 9] | SAE of asymptomatic 2nd degree AV block Mobitz I ([7]; blinded data, patient with pre-existing AV block 1st degree receiving carbamazepine, SAE data for 862 patients) |
| --- | --- | --- | --- | --- | --- | --- | --- | --- | --- | --- | --- | --- | --- | --- | --- | --- | --- | --- |
| 1350 pM | 2200 pM | – | – | – | – | – | – | CCc1cc(/C(C)=N/OCc2ccc(C3CCCCC3)c(I)c2)ccc1CN1CC(C(=O)O)C1 [compound A, (E)-1-(4-(1-(((4-cyclohexyl-3-iodobenzyl)oxy)imino)ethyl)-2-ethylbenzyl)azetidine-3-carboxylic acid] | – | – | – | – | – | – | – | – | – | – |
| 790 pM | 900 pM | 1000 pM | 400 pM | No cases | No cases | 1 patient | 2 patients | CCc1cc(/C(C)=N/OCc2ccc(C3CCCCC3)c(C(F)(F)F)c2)ccc1CN1CC(C(=O)O)C1 [siponimod, 1-{4-[1-((E)-4-cyclohexyl-3-trifluoromethyl-benzyloxyimino)-ethyl]-2-ethyl-benzyl}-azetidine-3-carboxylic acid] | approximately 10 beats/min | strongly inhibited | strongly inhibited | no cases | No symptomatic bradyarrhythmia events | 2 (0.3%) patients (%) | 17 (2.2%) patients (%) | 8 (1.0%) patients (%) | 54 (7%) patients (%) | 1 SAE |
